In patent US20240181081A1, “Compositions and Methods for Treatment of Myotonic Dystrophy Type 1 with CRISPR/SACAS9” (Vertex Pharmaceuticals Incorporated, priority 2021, published 2024):
Where “and” joins values, the source holds several entries; their conditions need not be identical. Equal values may be shown once.

Key:
[1] = tested on: CUG RNA foci in primary DM1 patient myoblasts; assay: DOUBLE-cut screening: FISH staining of RNA foci in primary DM1 patient myoblasts; assay type: cell-based, human; settings: sgRNA pair RNP, 72 hrs post nucleofection; for % of CUG foci free nuclei (DNA-PKi): 3 μM Compound 6 for 48 hrs; for % of CUG foci free nuclei (Vehicle): DMSO 48 hrs
Method in brief: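 Primary DM1 patient myoblasts nucleofected with paired upstream/downstream sgRNA–SaCas9 RNPs (20 pmol protein, 60 pmol sgRNA each), then treated 48 hrs with DMSO or 3 μM DNA-PK inhibitor. At 72 hrs post nucleofection, CUG foci stained by Cy3-PNA(CAG)5 FISH with MBNL1 co-staining and quantified by high-content confocal imaging.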

[2] = tested on: CTG repeat expansion in the 3′ UTR of human DMPK gene; assay: DOUBLE-cut screening: CTG repeat excision by loss-of-signal ddPCR in primary DM1 patient myoblasts; assay type: cell-based; settings: sgRNA pair RNP, mean of upstream and downstream ddPCR assays; for % of CTG repeat excision efficiency by ddPCR (DNA-PKi): 3 μM Compound 6 for 48 hrs; for % of CTG repeat excision efficiency by ddPCR (Vehicle): DMSO 48 hrs
Method in brief: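 Paired upstream/downstream sgRNAs, each as RNP with recombinant SaCas9 (20 pmol protein:60 pmol sgRNA), mixed 1:1 and nucleofected into primary DM1 myoblasts; cells then given DMSO or 3 μM DNA-PKi Compound 6 for 48 hrs. Genomic DNA taken 72 hrs post-nucleofection; excision is mean of upstream and downstream loss-of-signal ddPCR, normalized to DMPK exon 1 reference.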

Substance | % of CUG foci free nuclei (DNA-PKi) [1] | % of CUG foci free nuclei (Vehicle) [1] | % of CTG repeat excision efficiency by ddPCR (DNA-PKi) [2] | % of CTG repeat excision efficiency by ddPCR (Vehicle) [2]
SaU3 + SaD3: SaCas9 sgRNA pair, SEQ ID NOs: 3 and 11 (guide 1 ACTCCGGGGCCCCGTTGGAAGA; guide 2 CAACGATAGGTGGGGGTGCGTG; listed as DNA, chemistry not fully specified) | 78.72% | 51.28% | 57.46% | 36.25%
SaU4 + SaD20: SaCas9 sgRNA pair, SEQ ID NOs: 4 and 28; printed twice in Table 4 (guide 1 CCAGTTCACAACCGCTCCGAGC; guide 2 AGATGGAGGGCCTTTTATTCGC; listed as DNA, chemistry not fully specified) | 84.77% and 83.56% | 59.76% and 81.47% | 65.25% and 59.19% | 53.12% and 52.49%
SaU7 + SaD5: SaCas9 sgRNA pair, SEQ ID NOs: 7 and 13 (guide 1 CGCGGCCGGCGAACGGGGCTCG; guide 2 GGGTTTGGCAAAAGCAAATTTC; listed as DNA, chemistry not fully specified) | 82.27% | 64.24% | 69.71% | 50.76%
SaU8 + SaD6: SaCas9 sgRNA pair, SEQ ID NOs: 8 and 14 (guide 1 GGCTCGAAGGGTCCTTGTAGCC; guide 2 CTTTTGCCAAACCCGCTTTTTC; listed as DNA, chemistry not fully specified) | 65.28% | 32.43% | 40.19% | 23.57%
SaU4 + SaD6: SaCas9 sgRNA pair, SEQ ID NOs: 4 and 14 (guide 1 CCAGTTCACAACCGCTCCGAGC; guide 2 CTTTTGCCAAACCCGCTTTTTC; listed as DNA, chemistry not fully specified) | 67.36% | 37.76% | 48.99% | 28.23%
SaU1 + SaD11: SaCas9 sgRNA pair, SEQ ID NOs: 1 and 19 (guide 1 GCCCCGGAGTCGAAGACAGTTC; guide 2 CAAAACGTGGATTGGGGTTGTT; listed as DNA, chemistry not fully specified) | 74.03% | 41.32% | 52.38% | 26.52%
SaU3 + SaD12: SaCas9 sgRNA pair, SEQ ID NOs: 3 and 20 (guide 1 ACTCCGGGGCCCCGTTGGAAGA; guide 2 TCAGTGCATCCAAAACGTGGAT; listed as DNA, chemistry not fully specified) | 83.21% | 74.46% | 59.96% | 38.05%
SaU1 + SaD12: SaCas9 sgRNA pair, SEQ ID NOs: 1 and 20 (guide 1 GCCCCGGAGTCGAAGACAGTTC; guide 2 TCAGTGCATCCAAAACGTGGAT; listed as DNA, chemistry not fully specified) | 84.94% | 69.78% | 63.43% | 37.77%
SaU1 + SaD6: SaCas9 sgRNA pair, SEQ ID NOs: 1 and 14 (guide 1 GCCCCGGAGTCGAAGACAGTTC; guide 2 CTTTTGCCAAACCCGCTTTTTC; listed as DNA, chemistry not fully specified) | 70.98% | 31.66% | 49.69% | 32.51%
SaU2 + SaD5: SaCas9 sgRNA pair, SEQ ID NOs: 2 and 13 (guide 1 ACTCAGTCTTCCAACGGGGCCC; guide 2 GGGTTTGGCAAAAGCAAATTTC; listed as DNA, chemistry not fully specified) | 83.71% | 75.82% | 59.19% | 38.64%
SaU1 + SaD13: SaCas9 sgRNA pair, SEQ ID NOs: 1 and 21 (guide 1 GCCCCGGAGTCGAAGACAGTTC; guide 2 CCCAACAACCCCAATCCACGTT; listed as DNA, chemistry not fully specified) | 74.44% | 35.75% | 54.59% | 25.67%
SaU2 + SaD2: SaCas9 sgRNA pair, SEQ ID NOs: 2 and 10 (guide 1 ACTCAGTCTTCCAACGGGGCCC; guide 2 TCGGCCAGGCTGAGGCCCTGAC; listed as DNA, chemistry not fully specified) | 83.29% | 81.76% | 56.39% | 52.26%
SaU3 + SaD4: SaCas9 sgRNA pair, SEQ ID NOs: 3 and 12 (guide 1 ACTCCGGGGCCCCGTTGGAAGA; guide 2 ACTTTGCGAACCAACGATAGGT; listed as DNA, chemistry not fully specified) | 87.42% | 83.67% | 64.28% | 47.22%
SaU2 + SaD20: SaCas9 sgRNA pair, SEQ ID NOs: 2 and 28 (guide 1 ACTCAGTCTTCCAACGGGGCCC; guide 2 AGATGGAGGGCCTTTTATTCGC; listed as DNA, chemistry not fully specified) | 82.08% | 74.86% | 61.08% | 36.35%
SaU3 + SaD7: SaCas9 sgRNA pair, SEQ ID NOs: 3 and 15 (guide 1 ACTCCGGGGCCCCGTTGGAAGA; guide 2 GGGGCGCGGGATCCCCGAAAAA; listed as DNA, chemistry not fully specified) | 76.54% | 49.49% | 58.50% | 35.98%
SaU4 + SaD17: SaCas9 sgRNA pair, SEQ ID NOs: 4 and 25 (guide 1 CCAGTTCACAACCGCTCCGAGC; guide 2 TTTATTCGCGAGGGTCGGGGGT; listed as DNA, chemistry not fully specified) | 79.31% | 60.96% | 55.51% | 35.01%
SaU8 + SaD17: SaCas9 sgRNA pair, SEQ ID NOs: 8 and 25 (guide 1 GGCTCGAAGGGTCCTTGTAGCC; guide 2 TTTATTCGCGAGGGTCGGGGGT; listed as DNA, chemistry not fully specified) | 79.35% | 52.34% | 49.09% | 30.50%
SaU1 + SaD15: SaCas9 sgRNA pair, SEQ ID NOs: 1 and 23 (guide 1 GCCCCGGAGTCGAAGACAGTTC; guide 2 GACAATAAATACCGAGGAATGT; listed as DNA, chemistry not fully specified) | 85.70% | 72.80% | 64.96% | 37.54%
SaU2 + SaD18: SaCas9 sgRNA pair, SEQ ID NOs: 2 and 26 (guide 1 ACTCAGTCTTCCAACGGGGCCC; guide 2 GGGCCTTTTATTCGCGAGGGTC; listed as DNA, chemistry not fully specified) | 69.93% | 32.87% | 48.16% | 19.28%
SaU2 + SaD19: SaCas9 sgRNA pair, SEQ ID NOs: 2 and 27 (guide 1 ACTCAGTCTTCCAACGGGGCCC; guide 2 AGGACCCCCACCCCCGACCCTC; listed as DNA, chemistry not fully specified) | 80.94% | 62.27% | 56.62% | 49.08%
SaU4 + SaD18: SaCas9 sgRNA pair, SEQ ID NOs: 4 and 26 (guide 1 CCAGTTCACAACCGCTCCGAGC; guide 2 GGGCCTTTTATTCGCGAGGGTC; listed as DNA, chemistry not fully specified) | 69.76% | 36.81% | 45.55% | 26.25%
